From PMC11952846, “The sterol-regulating human ARV1 binds cholesterol and phospholipids through its conserved ARV1 homology domain” (The Journal of Biological Chemistry, 2025)

How the values were obtained:
[1] = biological target: GST-Annexin A2 (Homo sapiens, UniProt P07355); assay: Lipid overlay far western (positive control protein); format: binding; details: lipid-embedded membrane strips, incl. sphingolipid strip
Description: (§1) Lipid overlays were blocked in TBST-BSA (100 mM Tris–HCl buffer, pH 7.5, 150 mM NaCl, 0.5% Tween 20, 3% bovine serum albumin) for 1 h and subsequently washed eight separate times with TBST for 2 min each. Overlays were incubated with 0.5 μg/ml GST-tagged or 6XHIS-tagged proteins in 3% TBST-BSA buffer containing 0.1% Triton X-100, for 1 h at room temperature and washed as above. Overlays were incubated with either anti-GST or anti-6XHIS monoclonal antibodies at a 1:1000 dilution in TBST-BSA for 1 h at room temperature followed by eight washes in TBST. Overlays were visualized using Immobilon Western Chemiluminescent horseradish peroxidase substrate and protein–lipid interaction was detected using a GE ImageQuant LAS 3000 imager.

[2] = biological target: T1, GST-ARV1-N70 (Homo sapiens, UniProt Q9H2C2); assay: Lipid overlay far western, truncation; format: binding; details: compared to ARV1-N98
T1 construct: Expresses amino-terminal 70 amino acids of ARV1; made in house; host or cells: E. coli BL21 (pGEX-4T1)
T1 sequence (Q9H2C2 1-70): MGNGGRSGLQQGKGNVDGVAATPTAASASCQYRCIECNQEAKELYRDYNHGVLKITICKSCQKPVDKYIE
Description: as §1

[3] = biological target: T2, 6XHIS-ARV1-N98 K67A (Homo sapiens, UniProt Q9H2C2, K67A); assay: Lipid overlay far western, site-directed mutant; format: binding; details: compared to the ARV1-N98 protein
T2 construct: Expressing amino-terminal 98 amino acids of ARV1; made in house; host or cells: E. coli BL21 (pET-28a(+))
T2 sequence (Q9H2C2 1-98 K67A): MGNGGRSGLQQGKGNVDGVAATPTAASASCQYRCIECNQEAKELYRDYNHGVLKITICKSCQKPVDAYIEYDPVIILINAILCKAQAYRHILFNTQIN
Description: as §1

[4] = biological target: T3, 6XHIS-ARV1-N98 C34/C37A (Homo sapiens, UniProt Q9H2C2, C34A/C37A); assay: Lipid overlay far western, site-directed mutant; format: binding; details: compared to the ARV1-N98 protein
T3 construct: Expressing amino-terminal 98 amino acids of ARV1; made in house; host or cells: E. coli BL21 (pET-28a(+))
T3 sequence (Q9H2C2 1-98 C34A/C37A): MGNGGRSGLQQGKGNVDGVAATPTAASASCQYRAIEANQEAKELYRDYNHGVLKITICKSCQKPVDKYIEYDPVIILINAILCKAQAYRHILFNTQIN
Description: as §1

[5] = biological target: T4, 6XHIS-ARV1-N98 K54/K59A (Homo sapiens, UniProt Q9H2C2, K54A/K59A); assay: Lipid overlay far western, site-directed mutant; format: binding; details: compared to the ARV1-N98 protein
T4 construct: Expressing amino-terminal 98 amino acids of ARV1; made in house; host or cells: E. coli BL21 (pET-28a(+))
T4 sequence (Q9H2C2 1-98 K54A/K59A): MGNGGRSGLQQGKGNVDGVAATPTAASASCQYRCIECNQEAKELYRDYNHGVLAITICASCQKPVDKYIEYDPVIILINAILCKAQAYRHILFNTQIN
Description: as §1

[6] = biological target: T5, 6XHIS-ARV1-N98 C58/C61A (Homo sapiens, UniProt Q9H2C2, C58A/C61A); assay: Lipid overlay far western, site-directed mutant; format: binding; details: compared to the ARV1-N98 protein
T5 construct: Expressing amino-terminal 98 amino acids of ARV1; made in house; host or cells: E. coli BL21 (pET-28a(+))
T5 sequence (Q9H2C2 1-98 C58A/C61A): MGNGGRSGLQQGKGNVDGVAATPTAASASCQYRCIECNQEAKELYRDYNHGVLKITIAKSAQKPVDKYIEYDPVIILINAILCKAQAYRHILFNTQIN
Description: as §1

[7] = biological target: T6, 6XHIS-ARV1-N98 N94Q (Homo sapiens, UniProt Q9H2C2, N94Q); assay: Lipid overlay far western, site-directed mutant; format: binding; details: compared to the ARV1-N98 protein
T6 construct: Expressing amino-terminal 98 amino acids of ARV1; made in house; host or cells: E. coli BL21 (pET-28a(+))
T6 sequence (Q9H2C2 1-98 N94Q): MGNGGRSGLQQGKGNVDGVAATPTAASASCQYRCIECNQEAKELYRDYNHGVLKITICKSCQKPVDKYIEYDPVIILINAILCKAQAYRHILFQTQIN
Description: as §1

[8] = biological target: T7, GST-ARV1-N98 K67A (Homo sapiens, UniProt Q9H2C2, K67A); assay: Liposome binding assay, site-directed mutant; details: PC:PL, sulfatide liposomes
T7 construct: Expresses amino-terminal 98 amino acids of ARV1; made in house; host or cells: E. coli BL21 (pGEX-4T1)
T7 sequence (Q9H2C2 1-98 K67A): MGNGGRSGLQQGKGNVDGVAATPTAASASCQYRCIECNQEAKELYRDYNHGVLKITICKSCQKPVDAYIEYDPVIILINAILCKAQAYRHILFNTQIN
Description: (§2) Lyophilized lipids were reconstituted in chloroform at 10 mg/ml and stored in glass tubes with Teflon tops at −20 °C until use. One milliliter of 10 mg/ml stock was dried under a stream of nitrogen in a glass tube until a lipid cake/film was formed. The lipid cake was then rehydrated in BLT rehydration buffer (5 mM Tris/HCl, pH 7.4, containing 150 mM NaCl) to a concentration of 1 mg/ml. Lipid suspensions were subjected to three freeze/thaw cycles using a dry ice ethanol/[…] water bath to encapsulate the buffer and improve liposome formation. The suspension and lipid extruder were equilibrated to temperature for 10 min and liposomes were extruded using […] polycarbonate membranes (Avestin). Liposomes were made by mixing stock lipid PL (1 mg/ml) with PC (10 mg/ml).
(§3) Sulfatide liposomes were generated as previously described ([94]). All lipids were resuspended in organic solvents as per manufacturer’s instructions. Liposomes were prepared with mixing PC:PE:cholesterol:sulfatides (1:1:1:4) and subsequently dried down by lyophilization to obtain lipid films. Lipids were hydrated in 20 mM Tris–HCL, pH 6.8, containing 100 mM NaCl at a concentration of 1 mg/ml.
(§4) PI(4)P liposomes were generated as described by Knodler et al. ([95]), with some modifications. Briefly, liposomes were generated at a lipid concentration of 10 mg/ml. Liposomes contained PC (60%), PI (30%), PE (8%), and PI(4)P (2%). Lipid solution was dried down and resuspended in liposome buffer (20 mM Hepes–HCL, pH 7.4, containing 1 mM EDTA and 50 mM potassium acetate). Liposomes were formed by sonication on ice.
(§5) Liposomes were serial diluted in floatation buffer (100 mM NaCl, 2 mM EDTA, pH 5.5) to a final concentration of 0.1 mg/ml. Nine hundred microliters of liposome solution was placed in clear ultracentrifuge tubes and mixed with 100 μl of 0.01 μg/ml of protein. The liposome/protein solution was incubated at room temperature for 1 h with occasional shaking. An initial 100 μl of liposome/protein solution (liposomes) was removed and the remaining 900 μl was centrifuged at 50,000g for 20 min at 4 °C. The pellet was resuspended in 800 μl of fresh floatation buffer, centrifuged as above, and 800 μl of supernatant was removed (wash 1). This was repeated a second time and again 800 μl of supernatant was removed (wash 2). The final pellet was resuspended in 100 μl of floatation buffer plus SDS treatment buffer (pellet). Thirty microliters of each fraction was run on a 15% SDS-PAGE gel and probed with an anti-GST monoclonal antibody at a 1:1500 dilution.

[9] = biological target: T8, GST-ARV1-N98 N94A (Homo sapiens, UniProt Q9H2C2, N94A); assay: Liposome binding assay, site-directed mutant; details: PC:PL, sulfatide or PI(4)P liposomes
T8 construct: Expresses amino-terminal 98 amino acids of ARV1; made in house; host or cells: E. coli BL21 (pGEX-4T1)
T8 sequence (Q9H2C2 1-98 N94A): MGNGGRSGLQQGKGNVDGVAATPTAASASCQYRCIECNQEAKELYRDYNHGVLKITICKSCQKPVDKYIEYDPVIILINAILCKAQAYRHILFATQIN
Description: as §2, §3, §4, §5

[10] = biological target: T9, GST-ARV1-N98 C34/C37A (Homo sapiens, UniProt Q9H2C2, C34A/C37A); assay: Liposome binding assay, site-directed mutant; details: PC:PL, sulfatide or PI(4)P liposomes
T9 construct: Expresses amino-terminal 98 amino acids of ARV1; made in house; host or cells: E. coli BL21 (pGEX-4T1)
T9 sequence (Q9H2C2 1-98 C34A/C37A): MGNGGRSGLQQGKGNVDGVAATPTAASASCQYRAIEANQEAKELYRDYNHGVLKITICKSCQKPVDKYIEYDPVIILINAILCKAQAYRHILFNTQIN
Description: as §2, §3, §4, §5

[11] = biological target: T10, GST-ARV1-N98 C58/C61A (Homo sapiens, UniProt Q9H2C2, C58A/C61A); assay: Liposome binding assay, site-directed mutant; details: PC:PL, sulfatide or PI(4)P liposomes
T10 construct: Expresses amino-terminal 98 amino acids of ARV1; made in house; host or cells: E. coli BL21 (pGEX-4T1)
T10 sequence (Q9H2C2 1-98 C58A/C61A): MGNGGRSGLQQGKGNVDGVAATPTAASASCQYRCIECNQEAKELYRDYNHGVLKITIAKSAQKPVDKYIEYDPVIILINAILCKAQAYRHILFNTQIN
Description: as §2, §3, §4, §5

[12] = biological target: T11, GST-ARV1-N98 K54/K59A (Homo sapiens, UniProt Q9H2C2, K54A/K59A); assay: Liposome binding assay, site-directed mutant; details: PC:PL, sulfatide liposomes
T11 construct: Expresses amino-terminal 98 amino acids of ARV1; made in house; host or cells: E. coli BL21 (pGEX-4T1)
Description: as §2, §3, §4, §5

[13] = biological target: T12, GST-ARV1-N98 (Homo sapiens, UniProt Q9H2C2); assay: Lipid overlay far western; format: binding; details: lipid-embedded membrane strips, incl. sphingolipid strip
T12 construct: Expresses amino-terminal 98 amino acids of ARV1; made in house; host or cells: E. coli BL21 (pGEX-4T1)
T12 sequence (Q9H2C2 1-98): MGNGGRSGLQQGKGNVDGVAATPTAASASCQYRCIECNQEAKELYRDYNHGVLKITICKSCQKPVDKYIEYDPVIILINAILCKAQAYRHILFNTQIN
Description: as §1

[14] = biological target: T13, GST-ARV1 (full-length ARV1) (Homo sapiens, UniProt Q9H2C2); assay: Lipid overlay far western; format: binding; details: lipid-embedded membrane strips, incl. sphingolipid strip
T13 construct: Expresses full length ARV1; made in house; host or cells: E. coli BL21 (pGEX-4T1)
T13 sequence (Q9H2C2 1-271): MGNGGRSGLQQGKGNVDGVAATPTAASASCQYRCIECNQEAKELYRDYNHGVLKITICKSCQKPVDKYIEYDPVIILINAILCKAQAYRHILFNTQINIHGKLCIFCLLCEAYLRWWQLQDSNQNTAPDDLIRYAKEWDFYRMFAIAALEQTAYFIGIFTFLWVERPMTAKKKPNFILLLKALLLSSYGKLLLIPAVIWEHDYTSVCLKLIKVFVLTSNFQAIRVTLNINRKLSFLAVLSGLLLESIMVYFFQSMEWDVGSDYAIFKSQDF
Description: as §1

GST-Annexin A2, sequence (P07355 whole entry): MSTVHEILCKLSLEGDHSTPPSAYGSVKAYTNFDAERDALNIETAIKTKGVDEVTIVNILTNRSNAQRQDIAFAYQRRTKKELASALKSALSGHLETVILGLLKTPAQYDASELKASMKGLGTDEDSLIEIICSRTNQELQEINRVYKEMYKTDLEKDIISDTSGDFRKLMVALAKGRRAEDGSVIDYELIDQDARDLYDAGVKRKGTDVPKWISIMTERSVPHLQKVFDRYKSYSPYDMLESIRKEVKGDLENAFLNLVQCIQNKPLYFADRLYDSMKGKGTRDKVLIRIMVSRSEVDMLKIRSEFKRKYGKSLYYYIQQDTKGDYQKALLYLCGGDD

For sulfatide, the lipid-protein interaction [1] was “interacted”, the “change of lipid-protein interaction” value [2] was “loss of interaction” and the “change of lipid-protein interaction” value [3] was “weakened”. For the same substance, the “change of lipid-protein interaction” value [4] was “eliminated any interaction”, the “change of lipid-protein interaction” value [5] was “abolished” and the “change of lipid-protein interaction” value [6] was “eliminated any interaction”. For the same substance, the “change of lipid-protein interaction” value [7] was “more strongly”, the liposome binding [8] was “unable to bind” and the liposome binding [9] was “very weak”. For the same substance, the liposome binding [10] was “not”, the liposome binding [11] was “did not bind” and the liposome binding [12] was “unable to bind”. For the same substance, the lipid-protein interaction [13] was “interacted” and the lipid-protein interaction [14] was “interacted”.
